Assay results as given in US20230312564A1, “AROMATIC RING-LACTAM COMPOUND, PREPARATION METHOD THEREFOR AND USE THEREOF” (SHANGHAI RINGENE BIOPHARMA CO., LTD., priority 2020, published 2023).
pIC50: −log10 of the molar value. Where two headings read alike, the source gives them in different places. Values belong to the compound of their own block, whether it stands above or below them.

Legend:
Colo-205 cells = assay: Colo-205 tumor cell proliferation, CCK-8, 72 hours; format: cell-based; conditions: for pIC50: 72 hours, CCK-8, read-out: Colo-205 IC50; for cell proliferation inhibitory activity (in words): Colo-205
Protocol: 1. Test method: Colo-205 cells (ATCC) in logarithmic growth phase were inoculated into a 96-well culture plate at an appropriate density with 90 μL per well. After overnight culture, different concentrations of the compound were added and acted for 72 hours, and a solvent control group (negative control) was set. After the compound was acted on cells for 72 hours, the effect of the compound on cell proliferation was detected by the cell counting kit CCK-8 (Dojindo), and 10 μL of CCK-8 reagent was added to each well. After the plate was placed in a 37° C. incubator for 2 to 4 hours, a full-wavelength microplate reader SpectraMax 190 was adopted for obtaining the readings with a measured wavelength of 450 nm. […] The IC50 value was obtained by four-parameter regression with the software attached to the microplate reader.

ERK1/2 kinase = target: T1, ERK1/2 kinase; assay: ERK1/2 kinase (Carna) inhibitory activity, Caliper mobility shift; format: biochemical; conditions: for pIC50: read-out: ERK½ IC50
T1 construct: fused on or other part: Carna's ERK products carry a GST tag by vendor knowledge
Protocol: (1) Preparation of 1×Kinase buffer; (2) preparation of compound concentration gradient: the initial test concentration of the tested compound was 10 μM, which was 3-fold diluted to 10 concentrations, and a duplicate test was conducted, and then the tested compound was diluted in a 96 well plate to a 100-fold final concentration of 10 different concentrations of solution. […] Log (inhibitor) vs. response—Variable slope of the analysis software GraphPad Prism 5 was used to fit the dose-effect curve to obtain the IC50 value of each compound on the enzyme activity.
2. […] (A<10 nM, 10 nM≤B<200 nM, C≥200 nM)

[1] = In-vivo pharmacokinetic parameters in mice; design: species or system Balb-c mice; conditions: for F: PO 5 mg/kg vs IV 1 mg/kg; for AUC(0-inf) / AUC(0-t) / MRT inf / clearance / half-life / Vd / Cmax / Tmax: male, Balb-c, mouse, plasma; for Vd: read-out: Vss
Protocol: Six male SPF grade SD rats or Balb-c mice (Shanghai Sipple-Bikai Laboratory Animal) were divided into two groups, and the tested compounds were prepared into appropriate solutions or suspensions; one group was administered intravenously (with a dose of 1 mg/kg), and the other group was administered orally (with a dose of 5 mg/kg). Blood samples were collected by jugular vein puncture, and each sample was collected with a volume of about 0.2 mL/time point, and heparin sodium was used for anticoagulation. The time points of blood collection were listed below: 5, 15 and 30 min […], 1, 2, 4, 6, 8 and 24 h after administration; the collected blood samples were placed on ice and centrifuged to separate plasma (centrifugation conditions: 8,000 rpm, 6 min, 2 to 8° C.), and the collected plasma was stored at −80° C. before analysis. Plasma samples were analyzed by LC-MS/MS.
The pharmacokinetic parameters such as AUC0-t, AUC0-∞, MRT0-∞, Cmax, Tmax, T1/2 and Vd of the tested compounds and their mean values and standard deviations were calculated by the pharmacokinetic calculation software WinNonlin5.2 non-compartmental model according to the plasma concentration data. In addition, the bioavailability (F) was calculated by the following formula.
For samples with concentrations below the lower limit of quantitation, while pharmacokinetic parameter calculations were performed, samples sampled before Cmax was reached should be calculated as a zero value and samples sampled after Cmax was reached should be calculated as below limit of quantitation (BLQ).

[2] = Homo sapiens, COLO 205, class symbols
[3] = Homo sapiens, COLO 205, numeric values

Compound: Cc1cccc([C@@H](CO)NC(=O)[C@@H](C)N2Cc3ccc(-c4cc(NC5CCOCC5)ncn4)c(F)c3C2=O)c1 [Embodiment 6]
pIC50 (Colo-205 cells; [2]): > 7.00
pIC50 (ERK1/2 kinase; class symbols): > 8.00

Compound: Cc1cccc([C@@H](CO)NC(=O)[C@@H](C)N2Cc3ccc(-c4cc(NC5CCOCC5)ncn4)nc3C2=O)c1 [Embodiment 7]
pIC50 (Colo-205 cells; [2]): 6.00 to 7.00
pIC50 (ERK1/2 kinase; class symbols): 6.70 to 8.00

Compound: Cc1cccc([C@@H](CO)NC(=O)[C@@H](C)N2Cc3ccc(-c4ccnc(NC5CC(F)(F)C5)c4)c(F)c3C2=O)c1 [Embodiment 8]
cell proliferation inhibitory activity (in words) (Colo-205 cells): strong cell proliferation inhibitory activity
pIC50 (Colo-205 cells; [2]): > 7.00
pIC50 (ERK1/2 kinase; class symbols): > 8.00

Compound: Cc1cccc([C@@H](CO)NC(=O)[C@@H](C)N2Cc3ccc(-c4nc(Nc5ccnn5C)ncc4Cl)nc3C2=O)c1 [Embodiment 9]
pIC50 (Colo-205 cells; [2]): 6.00 to 7.00
pIC50 (ERK1/2 kinase; class symbols): > 8.00

Compound: Cc1cccc([C@@H](CO)NC(=O)[C@@H](C)N2Cc3ccc(-c4nc(NC5CC(F)(F)C5)ncc4Cl)nc3C2=O)c1 [Embodiment 10]
pIC50 (Colo-205 cells; [2]): 6.00 to 7.00
pIC50 (ERK1/2 kinase; numeric values): 7.89

Compound: Cc1cccc([C@@H](CO)NC(=O)[C@@H](C)N2Cc3ccc(-c4nc(N[C@H]5CCOC5)ncc4Cl)nc3C2=O)c1 [Embodiment 11]
pIC50 (Colo-205 cells; [2]): 6.00 to 7.00
pIC50 (ERK1/2 kinase; numeric values): 8.08

Compound: Cc1cccc([C@@H](CO)NC(=O)[C@@H](C)N2Cc3ccc(-c4nc(Nc5ccc(F)c(N6CCOCC6)c5)ncc4Cl)nc3C2=O)c1 [Embodiment 12]
pIC50 (Colo-205 cells; [2]): 6.00 to 7.00
pIC50 (ERK1/2 kinase; numeric values): 7.92

Compound: Cc1cccc([C@@H](CO)NC(=O)[C@@H](C)N2Cc3ccc(-c4cc(NC5CCOCC5)ncc4Cl)nc3C2=O)c1 [Embodiment 13]
pIC50 (Colo-205 cells; [2]): 6.00 to 7.00
pIC50 (ERK1/2 kinase; class symbols): 6.70 to 8.00

Compound: Cc1cccc([C@@H](CO)NC(=O)[C@@H](C)N2Cc3ccc(-c4cc(NC5CCOCC5)ncc4C)nc3C2=O)c1 [Embodiment 14]
pIC50 (Colo-205 cells; [2]): 6.00 to 7.00
pIC50 (ERK1/2 kinase; class symbols): 6.70 to 8.00

Compound: Cc1cccc([C@@H](CO)NC(=O)[C@@H](C)N2Cc3ccc(-c4cc(Nc5ccnn5C)ncc4F)nc3C2=O)c1 [Embodiment 15]
pIC50 (Colo-205 cells; [2]): 6.00 to 7.00
pIC50 (ERK1/2 kinase; class symbols): 6.70 to 8.00

Compound: Cc1cccc([C@@H](CO)NC(=O)[C@@H](C)N2Cc3ccc(-c4ccnc(Nc5ccnn5C)n4)nc3C2=O)c1 [Embodiment 16]
pIC50 (Colo-205 cells; [2]): > 7.00
pIC50 (ERK1/2 kinase; class symbols): > 8.00

Compound: Cc1cccc([C@@H](CO)NC(=O)[C@@H](C)N2Cc3ccc(-c4nc(NC5COC5)ncc4Cl)nc3C2=O)c1 [Embodiment 17]
pIC50 (Colo-205 cells; [2]): 6.00 to 7.00
pIC50 (ERK1/2 kinase; numeric values): 8.28

Compound: C[C@H](C(=O)N[C@H](CO)c1ccc(F)c(Cl)c1)N1Cc2ccc(-c3nc(NC4CCOCC4)ncc3Cl)nc2C1=O [Embodiment 19]
pIC50 (Colo-205 cells; [3]): 6.70
pIC50 (ERK1/2 kinase; numeric values): 8.32

Compound: (R)-2-(3-(5-Chloro-2-((tetrahydro-2H-pyran-4-yl)amino)pyrimidin-4-yl)-5-oxo-5,7-dihydro-6H-pyrrolo[3,4-b]pyridin-6-yl)-N—((S)-2-hydroxy-1-(m-tolyl)ethyl)propanamide [Comparative compound 3, reference compound]
pIC50 (Colo-205 cells; class symbols): < 6.00

Continued, in another order:

pIC50 (Colo-205 cells; [3]): 6.61
pIC50 (ERK1/2 kinase; numeric values): 8.74
Compound: C[C@H](C(=O)N[C@H](CO)c1cccc(F)c1)N1Cc2ccc(-c3nc(NC4CCOCC4)ncc3Cl)nc2C1=O [Embodiment 20]
enzyme inhibitory activity (in words) (ERK1/2 kinase): extremely strong enzyme inhibitory activity

pIC50 (Colo-205 cells; [3]): 7.17
pIC50 (ERK1/2 kinase; numeric values): 8.89
Compound: Cc1cccc([C@@H](CO)NC(=O)[C@@H](C)N2Cc3ccc(-c4ccnc(NC5CCOCC5)c4)c(F)c3C2=O)c1 [Embodiment 22]
cell proliferation inhibitory activity (in words) (Colo-205 cells): strong cell proliferation inhibitory activity
enzyme inhibitory activity (in words) (ERK1/2 kinase): extremely strong enzyme inhibitory activity

F [1]: 43%
AUC(0-inf) ([1]; IV, 1 mg/kg): 0.368 µM·h
AUC(0-t) ([1]; IV, 1 mg/kg): 0.364 µM·h
MRT inf ([1]; IV, 1 mg/kg): 18 min
clearance ([1]; IV, 1 mg/kg): 80 mL/min/kg
half-life ([1]; IV, 1 mg/kg): 42 min
Vd ([1]; IV, 1 mg/kg): 1.6 L/kg
AUC(0-inf) ([1]; PO, 5 mg/kg): 0.796 µM·h
AUC(0-t) ([1]; PO, 5 mg/kg): 0.776 µM·h
Cmax ([1]; PO, 5 mg/kg): 955 nM
Tmax ([1]; PO, 5 mg/kg): 18 min
half-life ([1]; PO, 5 mg/kg): 102 min
Compound: Cc1cccc([C@@H](CO)NC(=O)[C@@H](C)N2Cc3ccc(-c4nc(NC5CCOCC5)ncc4Cl)c(F)c3C2=O)c1 [Embodiment 25, (R)-2-(6-(5-Chloro-2-((tetrahydro-2H-pyran-4-yl)amino)pyrimidin-4-yl)-7-fluoro-1-oxoisoindolin-2-yl)-N—((S)-2-hydroxy-1-(m-tolyl)ethyl)propanamide]

pIC50 (Colo-205 cells; class symbols): > 7.00
pIC50 (ERK1/2 kinase; numeric values): 8.89
Compound: Cc1cccc([C@@H](CO)NC(=O)[C@@H](C)N2Cc3ccc(-c4ccnc(Nc5ccnn5C)n4)c(F)c3C2=O)c1 [Embodiment 27]

pIC50 (Colo-205 cells; class symbols): 6.00 to 7.00
pIC50 (ERK1/2 kinase; numeric values): 8.43
Compound: Cc1cccc([C@@H](CO)NC(=O)[C@@H](C)N2Cc3ccc(-c4nc(NC5CCOCC5)ncc4F)nc3C2=O)c1 [Embodiment 28]

pIC50 (Colo-205 cells; class symbols): 6.00 to 7.00
pIC50 (ERK1/2 kinase; numeric values): 8.44
Compound: Cc1cccc([C@@H](CO)NC(=O)[C@@H](C)N2Cc3ccc(-c4ccnc(NC(C)C)n4)c(F)c3C2=O)c1 [Embodiment 29]

pIC50 (Colo-205 cells; class symbols): 6.00 to 7.00
pIC50 (ERK1/2 kinase; numeric values): 8.16
Compound: Cc1cccc([C@@H](CO)NC(=O)[C@@H](C)N2Cc3ccc(-c4ccnc(NC5CCOCC5)n4)nc3C2=O)c1 [Embodiment 30]

F [1]: 26%
AUC(0-inf) ([1]; IV, 1 mg/kg): 0.272 µM·h
AUC(0-t) ([1]; IV, 1 mg/kg): 0.268 µM·h
MRT inf ([1]; IV, 1 mg/kg): 24 min
clearance ([1]; IV, 1 mg/kg): 110 mL/min/kg
half-life ([1]; IV, 1 mg/kg): 60 min
Vd ([1]; IV, 1 mg/kg): 2.7 L/kg
AUC(0-inf) ([1]; PO, 5 mg/kg): 0.347 µM·h
AUC(0-t) ([1]; PO, 5 mg/kg): 0.338 µM·h
Cmax ([1]; PO, 5 mg/kg): 357 nM
Tmax ([1]; PO, 5 mg/kg): 30 min
half-life ([1]; PO, 5 mg/kg): 90 min
Compound: Cc1cccc([C@@H](CO)NC(=O)[C@@H](C)N2Cc3ccc(-c4nc(Nc5ccnn5C)ncc4Cl)c(F)c3C2=O)c1 [Embodiment 32, (R)-2-(6-(5-Chloro-2-((1-methyl-1H-pyrazol-5-yl)amino)pyrimidin-4-yl)-7-fluoro-1-oxoisoindolin-2-yl)-N—((S)-2-hydroxy-1-(m-tolyl)ethyl)propanamide]

pIC50 (Colo-205 cells; numeric values): 7.01
pIC50 (ERK1/2 kinase; numeric values): 8.85
Compound: Cc1cccc([C@@H](CO)NC(=O)[C@@H](C)N2Cc3ccc(-c4nc(Nc5ccnn5C)ncc4Cl)c(F)c3C2=O)c1 [Embodiment 32]

F [1]: 25%
AUC(0-inf) ([1]; IV, 1 mg/kg): 0.276 µM·h
AUC(0-t) ([1]; IV, 1 mg/kg): 0.274 µM·h
MRT inf ([1]; IV, 1 mg/kg): 12 min
clearance ([1]; IV, 1 mg/kg): 102 mL/min/kg
half-life ([1]; IV, 1 mg/kg): 24 min
Vd ([1]; IV, 1 mg/kg): 1.3 L/kg
AUC(0-inf) ([1]; PO, 5 mg/kg): 0.338 µM·h
AUC(0-t) ([1]; PO, 5 mg/kg): 0.322 µM·h
Cmax ([1]; PO, 5 mg/kg): 441 nM
Tmax ([1]; PO, 5 mg/kg): 18 min
half-life ([1]; PO, 5 mg/kg): 90 min
Compound: COc1cc(F)cc([C@@H](CO)NC(=O)[C@@H](C)N2Cc3ccc(-c4nc(NC5CCOCC5)ncc4Cl)c(F)c3C2=O)c1 [Embodiment 33, (R)-2-(6-(5-Chloro-2-((tetrahydro-2H-pyran-4-yl)amino)pyrimidin-4-yl)-7-fluoro-1-oxoisoindolin-2-yl)-N—((S)-1-(3-fluoro-5-methoxyphenyl)-2-hydroxyethyl)propanamide]

F [1]: 19%
AUC(0-inf) ([1]; IV, 1 mg/kg): 0.83 µM·h
AUC(0-t) ([1]; IV, 1 mg/kg): 0.825 µM·h
MRT inf ([1]; IV, 1 mg/kg): 18 min
clearance ([1]; IV, 1 mg/kg): 34 mL/min/kg
half-life ([1]; IV, 1 mg/kg): 48 min
Vd ([1]; IV, 1 mg/kg): 0.7 L/kg
AUC(0-inf) ([1]; PO, 5 mg/kg): 0.806 µM·h
AUC(0-t) ([1]; PO, 5 mg/kg): 0.797 µM·h
Cmax ([1]; PO, 5 mg/kg): 791 nM
Tmax ([1]; PO, 5 mg/kg): 18 min
half-life ([1]; PO, 5 mg/kg): 90 min
Compound: C[C@H](C(=O)N[C@H](CO)c1cccc(Cl)c1)N1Cc2ccc(-c3nc(NC4CCOCC4)ncc3Cl)c(F)c2C1=O [Embodiment 34, (R)-2-(6-(5-Chloro-2-((tetrahydro-2H-pyran-4-yl)amino)pyrimidin-4-yl)-7-fluoro-1-oxoisoindolin-2-yl)-N—((S)-1-(3-chlorophenyl)-2-hydroxyethyl)propanamide]
